# Measurements taken from patent US9187465B2, “Oxazole tyrosine kinase inhibitors” (Sareum Limited, priority 2007, dated 2015).
# Key:
# Format in all cases: biochemical
# [1] = target: T1, human Aurora A (Homo sapiens, UniProt O14965); assay: Aurora A kinase assay (DELFIA enzyme inhibition); conditions: read-out: Aurora A IC50
# T1 construct: Histidine tag (N); host or cells: Sf9 insect cells (baculovirus)
# T1 sequence (O14965 1-403): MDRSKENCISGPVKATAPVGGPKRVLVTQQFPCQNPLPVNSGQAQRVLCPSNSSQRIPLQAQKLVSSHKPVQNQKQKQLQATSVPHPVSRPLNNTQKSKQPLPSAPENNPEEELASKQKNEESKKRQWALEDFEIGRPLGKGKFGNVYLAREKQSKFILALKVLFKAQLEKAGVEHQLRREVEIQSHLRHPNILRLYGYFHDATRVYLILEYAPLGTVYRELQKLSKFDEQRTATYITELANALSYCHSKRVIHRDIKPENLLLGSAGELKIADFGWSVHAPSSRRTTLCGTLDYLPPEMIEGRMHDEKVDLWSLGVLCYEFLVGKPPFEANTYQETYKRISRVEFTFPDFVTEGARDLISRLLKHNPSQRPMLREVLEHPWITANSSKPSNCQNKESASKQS
# How it was run: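 DELFIA read-out (time-resolved Eu fluorescence, 620 nm emission) after Neutravidin capture of biotinylated peptide substrate and antibody detection. Reaction: Ni-agarose-purified Aurora A, 30 min at room temperature, stopped with 100 mM EDTA.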
# [2] = target: T2, human FLT3 (Homo sapiens, UniProt P36888); assay: FLT3 kinase assay (DELFIA enzyme inhibition)
# T2 construct: a construct expressing the human FLT3 (564-993) with an amino terminal GST tag; host or cells: Sf9 insect cells (baculovirus)
# T2 sequence (P36888 564-993): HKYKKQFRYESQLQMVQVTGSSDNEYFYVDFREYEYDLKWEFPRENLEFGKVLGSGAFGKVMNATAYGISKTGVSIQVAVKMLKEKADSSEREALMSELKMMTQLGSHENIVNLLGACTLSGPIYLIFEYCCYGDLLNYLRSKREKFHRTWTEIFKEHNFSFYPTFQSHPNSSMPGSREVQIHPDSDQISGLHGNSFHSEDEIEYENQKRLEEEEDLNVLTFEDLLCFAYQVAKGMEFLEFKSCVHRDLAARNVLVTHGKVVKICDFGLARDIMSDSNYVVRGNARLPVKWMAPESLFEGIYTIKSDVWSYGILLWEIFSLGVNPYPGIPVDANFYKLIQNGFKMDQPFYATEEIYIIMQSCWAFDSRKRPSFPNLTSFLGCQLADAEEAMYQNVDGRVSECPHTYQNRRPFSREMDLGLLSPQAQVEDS
# How it was run: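 GST-tagged human FLT3 (564-993), expressed in sf9 cells, phosphorylated a biotinylated Gastrin Precursor (Tyr 87)-derived peptide for 30 min at room temperature before EDTA stop. The captured peptide was detected by Eu-labelled anti-phosphotyrosine DELFIA time-resolved fluorescence. IC50 was derived from % inhibition curves.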
# [3] = target: T3, human FLT4 (Homo sapiens, UniProt P35916); assay: FLT4 kinase assay (DELFIA enzyme inhibition); conditions: read-out: FLT4 IC50
# T3 construct: a construct expressing the human FLT4 (789-1207) with an amino terminal GST tag; host or cells: Sf9 insect cells (baculovirus)
# How it was run: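 GST-tagged human FLT4 (789-1207) from Sf9 cells phosphorylates a biotinylated MET (Tyr1253)-derived peptide for 30 min at room temperature, stopped with EDTA. Phosphopeptide is captured on Neutravidin and detected with Eu-labelled anti-phosphotyrosine antibody by time-resolved fluorescence; IC50 from % inhibition curves.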
# T3 sequence (P35916 789-1207): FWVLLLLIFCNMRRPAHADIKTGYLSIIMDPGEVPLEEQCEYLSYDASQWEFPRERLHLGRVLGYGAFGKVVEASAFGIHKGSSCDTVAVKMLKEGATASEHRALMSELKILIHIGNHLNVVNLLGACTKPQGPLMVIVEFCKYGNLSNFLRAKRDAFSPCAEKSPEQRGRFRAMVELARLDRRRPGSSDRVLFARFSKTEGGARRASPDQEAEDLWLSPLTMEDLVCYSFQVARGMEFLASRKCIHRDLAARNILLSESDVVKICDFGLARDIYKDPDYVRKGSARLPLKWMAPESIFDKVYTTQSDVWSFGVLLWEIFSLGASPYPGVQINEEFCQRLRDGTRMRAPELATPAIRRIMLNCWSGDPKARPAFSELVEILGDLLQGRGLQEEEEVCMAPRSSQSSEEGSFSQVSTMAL
SMILES,IC50 [1],IC50 [2],IC50 [3]
"CNS(=O)(=O)c1ccc(Nc2oc(-c3c(F)cccc3F)nc2C(N)=O)cc1 [Example Q-27, 2-(2,6-difluorophenyl)-5-(4-(N′-methylsulfonamide)phenylamino)oxazole-4-carboxamide]",< 10 µM,< 10 µM,< 10 µM
"NC(=O)c1nc(-c2c(F)cccc2F)oc1Nc1ccc(S(=O)(=O)N2CCOCC2)cc1 [Example Q-29, 2-(2,6-difluorophenyl)-5-(4-(morpholinosulfonyl)phenylamino)oxazole-4-carboxamide]",< 10 µM,< 10 µM,< 10 µM
"NC(=O)c1nc(-c2c(F)cccc2F)oc1Nc1ccc(-n2cncn2)cc1 [Example Q-30, 5-(4-(1H-1,2,4-triazol-1-yl)phenylamino)-2-(2,6-difluorophenyl)oxazole-4-carboxamide]",< 10 µM,< 100 µM,< 10 µM
"NC(=O)c1nc(-c2c(F)cccc2F)oc1Nc1ccc(-n2cnnn2)cc1 [Example Q-31, 5-(4-(1H-tetrazol-1-yl)phenylamino)-2-(2,6-difluorophenyl)oxazole-4-carboxamide]",< 10 µM,< 10 µM,< 10 µM
"NC(=O)c1nc(-c2c(F)cccc2F)oc1Nc1ccc(C2=NNC(=O)C2)cc1 [Example Q-32, 2-(2,6-difluorophenyl)-5-(4-(5-oxo-4,5-dihydro-1H-pyrazol-3-yl)phenylamino)oxazole-4-carboxamide]",< 10 µM,< 10 µM,< 10 µM
"NC(=O)c1nc(-c2c(F)cccc2F)oc1Nc1ccc(-c2cc(CO)on2)cc1 [Example Q-33, 2-(2,6-difluorophenyl)-5-(4-(5-(hydroxymethyl)isoxazol-3-yl)phenylamino)oxazole-4-carboxamide]",< 10 µM,< 100 µM,< 10 µM
"NC(=O)c1nc(-c2c(F)cccc2F)oc1Nc1ccc(-c2nnn[nH]2)cc1 [Example Q-34, 5-(4-(1H-tetrazol-5-yl)phenylamino)-2-(2,6-difluorophenyl)oxazole-4-carboxamide]",< 10 µM,< 10 µM,< 10 µM
"NC(=O)c1nc(-c2c(Cl)cccc2Cl)oc1Nc1ccc(N2CCNCC2)cc1 [Example Q-35, 2-(2,6-dichlorophenyl)-5-(4-(piperazin-1-yl)phenylamino)oxazole-4-carboxamide]",< 10 µM,< 10 µM,< 10 µM
"Cc1cccc(C)c1-c1nc(C(N)=O)c(Nc2ccc(N3CCNCC3)cc2)o1 [Example Q-37, 2-(2,6-dimethylphenyl)-5-(4-(piperazin-1-yl)phenylamino)oxazole-4-carboxamide]",< 10 µM,< 10 µM,< 10 µM
"NC(=O)c1nc(-c2c(F)cccc2F)oc1Nc1ccc(N2CCNCC2)nc1 [Example Q-47, 2-(2,6-difluorophenyl)-5-(6-(piperazin-1-yl)pyridin-3-ylamino)oxazole-4-carboxamide]",< 10 µM,< 10 µM,< 10 µM
"NC(=O)c1nc(-c2c(F)cccc2F)oc1Nc1ccc(CN2CCCCC2)cc1 [Example Q-56, 2-(2,6-difluorophenyl)-5-(4-(piperidin-1-ylmethyl)phenylamino)oxazole-4-carboxamide]",< 10 µM,< 10 µM,< 10 µM
"CS(=O)(=O)c1ccc(Nc2oc(-c3cccc4[nH]ncc34)nc2C(N)=O)cc1 [Example Q-58, 2-(1H-indazol-4-yl)-5-(4-(methylsulfonyl)phenylamino)oxazole-4-carboxamide]",< 10 µM,< 10 µM,< 10 µM
"NC(=O)c1nc(-c2cccc3[nH]ncc23)oc1Nc1ccc(N2CCN(C(=O)C(F)(F)F)CC2)cc1 [Example Q-60, 2-(1H-indazol-4-yl)-5-(4-(4-(2,2,2-trifluoroacetyl)piperazin-1-yl)phenylamino)oxazole-4-carboxamide]",< 10 µM,< 10 µM,< 10 µM

# Second part, the compound after the results:
IC50 [1],IC50 [2],IC50 [3],SMILES
< 10 µM,< 10 µM,< 10 µM,"COc1ccc(-c2oc(Nc3ccccc3)nc2C(N)=O)cc1 [Example R-1, 5-(4-methoxyphenyl)-2-(phenylamino)oxazole-4-carboxamide]"
< 10 µM,< 10 µM,< 10 µM,"COc1ccc(-c2oc(Nc3ccccc3OC)nc2C(N)=O)cc1 [Example R-2, 5-(4-methoxyphenyl)-2-(2-methoxyphenylamino)oxazole-4-carboxamide]"
< 10 µM,< 10 µM,< 10 µM,"COc1ccc(-c2oc(Nc3ccccc3C)nc2C(N)=O)cc1 [Example R-5, 2-(o-toluidino)-5-(4-methoxyphenyl)oxazole-4-carboxamide]"
< 10 µM,< 10 µM,< 10 µM,"COc1ccc(-c2oc(Nc3ccccc3F)nc2C(N)=O)cc1 [Example R-8, 2-(2-fluorophenylamino)-5-(4-methoxyphenyl)oxazole-4-carboxamide]"
< 10 µM,< 10 µM,< 10 µM,"COc1cccc(Nc2nc(C(N)=O)c(-c3ccc(N4CCNCC4)cc3)o2)c1 [Example R-12, 2-(3-methoxyphenylamino)-5-(4-(piperazin-1-yl)phenyl)oxazole-4-carboxamide]"
< 10 µM,< 10 µM,< 10 µM,"NC(=O)c1nc(Nc2cccnc2)oc1-c1ccc(N2CCNCC2)cc1 [Example R-14, 5-(4-(piperazin-1-yl)phenyl)-2-(pyridin-3-ylamino)oxazole-4-carboxamide]"
< 10 µM,< 10 µM,< 10 µM,"NC(=O)c1nc(Nc2ccc3[nH]ncc3c2)oc1-c1ccc(N2CCNCC2)cc1 [Example R-15, 2-(1H-indazol-5-ylamino)-5-(4-(piperazin-1-yl)phenyl)oxazole-4-carboxamide]"
< 10 µM,< 10 µM,< 10 µM,"NC(=O)c1nc(Nc2ccc3cn[nH]c3c2)oc1-c1ccc(N2CCNCC2)cc1 [Example R-16, 2-(1H-indazol-6-ylamino)-5-(4-(piperazin-1-yl)phenyl)oxazole-4-carboxamide]"
< 10 µM,< 10 µM,< 10 µM,"NC(=O)c1nc(Nc2cnn(Cc3ccccc3)c2)oc1-c1ccc(N2CCNCC2)cc1 [Example R-17, 2-(1-benzyl-1H-pyrazol-4-ylamino)-5-(4-(piperazin-1-yl)phenyl)oxazole-4-carboxamide]"
< 10 µM,< 100 µM,< 10 µM,"CN1CCN(CCOc2ccc(-c3oc(-c4c(F)cccc4F)nc3C(N)=O)cc2)CC1 [Example S-1, 2-(2,6-difluorophenyl)-5-(4-(2-(4-methylpiperazin-1-yl)ethoxy)phenyl)oxazole-4-carboxamide]"
< 100 µM,< 100 µM,< 100 µM,"NC(=O)c1nc(-c2c(F)cccc2N2CCC(O)CC2)oc1-c1ccc(OCCN2CCC(O)CC2)cc1 [Example S-3, 2-(2-fluoro-6-(4-hydroxypiperidin-1-yl)phenyl)-5-(4-(2-(4-hydroxypiperidin-1-yl)ethoxy)phenyl)oxazole-4-carboxamide]"
< 10 µM,< 100 µM,< 10 µM,"NC(=O)c1nc(-c2c(F)cccc2F)oc1-c1ccc(OCCN2CCC(O)CC2)cc1 [Example S-4, 2-(2,6-difluorophenyl)-5-(4-(2-(4-hydroxypiperidin-1-yl)ethoxy)phenyl)oxazole-4-carboxamide]"
< 10 µM,< 100 µM,< 10 µM,"NC(=O)c1nc(-c2c(F)cccc2F)oc1-c1ccc(OCCN2CCC[C@H]2CO)cc1 [Example S-5, (S)-2-(2,6-difluorophenyl)-5-(4-(2-(2-(hydroxymethyl)pyrrolidin-1-yl)ethoxy)phenyl)oxazole-4-carboxamide]"
< 10 µM,< 10 µM,< 10 µM,"NC(=O)c1nc(-c2c(F)cccc2F)oc1-c1ccc(OCCN2CCC[C@@H]2CO)cc1 [Example S-6, (R)-2-(2,6-difluorophenyl)-5-(4-(2-(2-(hydroxymethyl)pyrrolidin-1-yl)ethoxy)phenyl)oxazole-4-carboxamide]"
